From the NIST ThermoML archive (doi:10.1016/j.tca.2013.05.007)

Columns and labels:
[1] = DTA
[2] = molar heat capacity at constant pressure; conditions: 101.33 kPa, Liquid, Large sample (1 g) DSC

CCC[n+]1cccc(C)c1.O=S(=O)([N-]S(=O)(=O)C(F)(F)F)C(F)(F)F
Conditions	Glass transition temperature [°C]
[1]	-88

[2]
Conditions	molar heat capacity at constant pressure [J/K/mol]
293.15 K	510
294.15 K	511
295.15 K	513
296.15 K	514
297.15 K	516
298.15 K	517
299.15 K	518
300.15 K	519
301.15 K	520
302.15 K	521
303.15 K	522
304.15 K	523
305.15 K	524
306.15 K	525
307.15 K	526
308.15 K	527
309.15 K	528
310.15 K	529
311.15 K	530
312.15 K	531
313.15 K	532
314.15 K	532
315.15 K	533
316.15 K	534
317.15 K	535
318.15 K	536
319.15 K	536
320.15 K	537
321.15 K	538
322.15 K	539
323.15 K	540
324.15 K	541
325.15 K	541
326.15 K	542
327.15 K	543
328.15 K	544
329.15 K	545
330.15 K	546
331.15 K	547
332.15 K	548
333.15 K	549

CCCC[n+]1cccc(C)c1.O=S(=O)([O-])C(F)(F)F [1-butyl-3-methylpyridinium trifluoromethanesulfonate]
Conditions	Normal melting temperature [°C]	molar heat capacity at constant pressure [J/K/mol]
[1], Crystal 1	30	–
[1], Metastable crystal	-6	–
[2], 323.15 K	–	461
[2], 324.15 K	–	462
[2], 325.15 K	–	464
[2], 326.15 K	–	465
[2], 327.15 K	–	467
[2], 328.15 K	–	468
[2], 329.15 K	–	469
[2], 330.15 K	–	471
[2], 331.15 K	–	472
[2], 332.15 K	–	473
[2], 333.15 K	–	474
[2], 334.15 K	–	475
[2], 335.15 K	–	476
[2], 336.15 K	–	478
[2], 337.15 K	–	479
[2], 338.15 K	–	480
[2], 339.15 K	–	481
[2], 340.15 K	–	482
[2], 341.15 K	–	483
[2], 342.15 K	–	485
[2], 343.15 K	–	486
[2], 344.15 K	–	487
[2], 345.15 K	–	488
[2], 346.15 K	–	489
[2], 347.15 K	–	490
[2], 348.15 K	–	491
[2], 349.15 K	–	492
[2], 350.15 K	–	493
[2], 351.15 K	–	494
[2], 352.15 K	–	495
[2], 353.15 K	–	496

Conditions	Glass transition temperature [°C]
[1]	-76

CC[n+]1cccc(C)c1.O=S(=O)([N-]S(=O)(=O)C(F)(F)F)C(F)(F)F
Conditions	Normal melting temperature [°C]	molar heat capacity at constant pressure [J/K/mol]
[1], Crystal	-1	–
[2], 293.15 K	–	484
[2], 294.15 K	–	486
[2], 295.15 K	–	487
[2], 296.15 K	–	489
[2], 297.15 K	–	490
[2], 298.15 K	–	491
[2], 299.15 K	–	493
[2], 300.15 K	–	494
[2], 301.15 K	–	495
[2], 302.15 K	–	496
[2], 303.15 K	–	497
[2], 304.15 K	–	498
[2], 305.15 K	–	499
[2], 306.15 K	–	500
[2], 307.15 K	–	501
[2], 308.15 K	–	502
[2], 309.15 K	–	502
[2], 310.15 K	–	503
[2], 311.15 K	–	504
[2], 312.15 K	–	505
[2], 313.15 K	–	506
[2], 314.15 K	–	507
[2], 315.15 K	–	507
[2], 316.15 K	–	508
[2], 317.15 K	–	509
[2], 318.15 K	–	510
[2], 319.15 K	–	510
[2], 320.15 K	–	511
[2], 321.15 K	–	512
[2], 322.15 K	–	513
[2], 323.15 K	–	514
[2], 324.15 K	–	514
[2], 325.15 K	–	515
[2], 326.15 K	–	516
[2], 327.15 K	–	517
[2], 328.15 K	–	518
[2], 329.15 K	–	519
[2], 330.15 K	–	519
[2], 331.15 K	–	520
[2], 332.15 K	–	521
[2], 333.15 K	–	522
